Results from patent US20110171279A1, “POLYETHYLENIMINE BIOCIDES” (NDSU RESEARCH FOUNDATION, priority 2009, published 2011).
Converted amounts (≈) assume the structure as drawn. Like-named read-outs stand apart in the source and are kept apart here.

Assays:
Format in all cases: cell-based
[1] = test system: Staphylococcus epidermidis; assay: Growth reduction / MIC test against Staphylococcus epidermidis in tryptic soy broth, absorbance 600 nm; settings: for Percent reduction in growth of Staphylococcus epidermidis: Table 2; for MIC: Staphylococcus epidermidis, read-out: S. epidermidis MIC
Experimental: (§1) The antimicrobial properties of the Formulations were determined by measuring the minimum inhibitory concentration (MIC) or by using an adaptation of the MIC test. […] Additional details of the MIC method can be found at Andrews, J. M., Journal of Antimicrobial Chemotherapy (2001) 48, 5-16, incorporated herein by reference in its entirety.
(§2) In accordance with the MIC test, working solutions for each Formulation were prepared by dissolving 100 mg of each Formulation in 10 mL of methanol (Sigma-Aldrich) to generate a 10 mg/mL solution. Next, 10 ml of tryptic soy broth was spiked with 200 μL of the mg/mL Formulation solution to achieve a final concentration of 0.2 mg/mL.
0.2 mL of each concentration of each Formulation (spiked with S. epidermidis) was added in triplicate to a 96-well plate. Additionally, 0.2 mL of tryptic soy broth without any S. epidermidis or Formulation and 0.2 mL of tryptic soy broth with S. epidermidis, but no Formulations, served as negative and positive growth controls, respectively. Plates were then placed in an incubator, at 37° C. for 24 hrs (with shaking), and then measured for growth by taking absorbance measurements at 600 nm with a multi-well plate spectrophotometer (Synergy HT microplate reader, BioTek Instruments, Winooski, Vt.). The efficacy of each Formulation was measured by determining the percent reduction in bacterial growth as a function of Formulation concentration.
For comparison purposes a benzylpiperidino biocide (“Reference 1”) was prepared using ETCS and synthetic methods similar to those described in U.S. Pat. No. 5,036,077, issued Jul. 30, 1991, and incorporated by reference in its entirety. To make Reference 1, 3.9 g of ETCS and 2 g of 4-benzylpiperidine were reacted in 30 mL of methanol. The mixture was heated at 65° C. for 48 hours. Reaction completion was confirmed by ^1H NMR, ^13C NMR, HMQC (2D) NMR and elemental analysis. The antimicrobial activity of Formulations 69-77 and Reference 1 toward S. epidermidis was measured by determining the percent reduction in bacterial growth as a function of concentration, as was done above in EXAMPLE 3.

Cellulophaga lytica = assay: Growth reduction / MIC test against Cellulophaga lytica; settings: for MIC: Cellulophaga lytica; for Percent reduction in growth of Cellulophaga lytica: Table 5
Experimental: as §1
as §2, with “ml of Guillard's F/2 medium was spiked” for “ml of tryptic soy broth was spiked”, “of the 10 mg/mL Formulation” for “of the mg/mL Formulation”
(§3) 0.2 mL of each concentration of each Formulation (spiked with C. lytica) was added in triplicate to a 96-well plate. Additionally, 0.2 mL of Guillard's F/2 medium without any C. lytica or Formulation and 0.2 mL of Guillard's F/2 medium with C. lytica, but no Formulations, served as negative and positive growth controls, respectively. The 96-well plates were placed in an illuminated growth cabinet with a 16:8 light:dark cycle (photon flux density 33 μmol m^−2 s^−1) for 48 hrs at 18° C. and measured for chlorophyll fluorescence using a multi-well plate spectrophotometer (excitation: 360 nm; emission: 670 nm). The efficacy of each Formulation was measured by determining the percent reduction in diatom growth as a function of Formulation concentration.
The antimicrobial activity of Formulations 10-12, also derived from ETCS and PEI, was determined toward a suite of marine microorganisms, namely, Pseudoalteromonas atlantica, Cellulophaga lytica, Cobetia marina, and Halomonas pacifica. The antimicrobial activity of Formulations 10-12 was determined toward these marine microorganisms according to the methods of EXAMPLES 5-7. The MIC for each Formulation against each strain is compared to that of the PEI, ETCS, and TCS (alone) in Table 7.

Navicula incerta = assay: Growth reduction / MIC test against Navicula incerta in Guillard's F/2 medium, chlorophyll fluorescence; settings: for Percent reduction in growth of Navicula incerta: Table 4
Experimental: as §1
as §2, with “ml of Guillard's F/2 medium was spiked” for “ml of tryptic soy broth was spiked”, “of the 10 mg/mL Formulation” for “of the mg/mL Formulation”
as §3, with “N. incerta)” for “C. lytica)”, “N. incerta” for “C. lytica”, “N. incerta,” for “C. lytica,”

[2] = Formulation Concentration 0.78125 μg/mL
[3] = Formulation Concentration 1.5625 μg/mL
[4] = Formulation Concentration 3.125 μg/mL
[5] = Formulation Concentration 6.25 μg/mL
[6] = Formulation Concentration 12.5 μg/mL
[7] = Formulation Concentration 25 μg/mL
[8] = Formulation Concentration 50 μg/mL
[9] = Formulation Concentration 100 μg/mL

Row | SMILES | Percent reduction in growth of Staphylococcus epidermidis [1, 2] | Percent reduction in growth of Staphylococcus epidermidis [1, 3] | Percent reduction in growth of Staphylococcus epidermidis [1, 4] | Percent reduction in growth of Staphylococcus epidermidis [1, 5] | Percent reduction in growth of Staphylococcus epidermidis [1, 6] | Percent reduction in growth of Staphylococcus epidermidis [1, 7] | Percent reduction in growth of Staphylococcus epidermidis [1, 8] | Percent reduction in growth of Staphylococcus epidermidis [1, 9] | Percent reduction in growth of Cellulophaga lytica (Cellulophaga lytica; [2]) | Percent reduction in growth of Cellulophaga lytica (Cellulophaga lytica; [3]) | Percent reduction in growth of Cellulophaga lytica (Cellulophaga lytica; [4]) | Percent reduction in growth of Cellulophaga lytica (Cellulophaga lytica; [5]) | Percent reduction in growth of Cellulophaga lytica (Cellulophaga lytica; [6]) | Percent reduction in growth of Cellulophaga lytica (Cellulophaga lytica; [7]) | Percent reduction in growth of Cellulophaga lytica (Cellulophaga lytica; [8]) | Percent reduction in growth of Cellulophaga lytica (Cellulophaga lytica; [9]) | Percent reduction in growth of Navicula incerta (Navicula incerta; [2]) | Percent reduction in growth of Navicula incerta (Navicula incerta; [3]) | Percent reduction in growth of Navicula incerta (Navicula incerta; [4]) | Percent reduction in growth of Navicula incerta (Navicula incerta; [5]) | further results
1 | Clc1ccc(Oc2ccc(Cl)cc2OCC2CO2)c(Cl)c1 (stereo not shown) [ETCS, 2-((5-chloro-2-(2,4-dichlorophenoxy)phenoxy)methyl)oxirane] | 0.00% | 9.43% | 8.30% | 16.36% | 18.64% | 17.39% | 22.16% | 9.55% | 0.00% | 5.92% | 10.06% | 11.24% | 33.73% | 57.40% | 69.23% | 14.20% | 0.00% | 0.00% | 0.00% | 0.00% | MIC ([1]; Table 12): > 100 µg/mL; MIC (Cellulophaga lytica; Table 7, read-out: C. lytica MIC): > 100 µg/mL; C. lytica MIC (Cellulophaga lytica; Table 12): >100 µg/mL; Percent reduction in growth of Navicula incerta (Navicula incerta; [6]): 34.14%; Percent reduction in growth of Navicula incerta (Navicula incerta; [7]): 89.92%; Percent reduction in growth of Navicula incerta (Navicula incerta; [8]): 91.40%; Percent reduction in growth of Navicula incerta (Navicula incerta; [9]): 93.37%
2 | Oc1cc(Cl)ccc1Oc1ccc(Cl)cc1Cl [TCS, triclosan] | 81.36% | 86.70% | 92.70% | 92.96% | 93.09% | 92.83% | 93.09% | 93.35% | 12.29% | 32.40% | 59.78% | 86.87% | 86.87% | 87.15% | 87.15% | 86.59% | 14.26% | 22.00% | 84.51% | 91.29% | MIC [1]: 0.781 µg/mL; MIC (Cellulophaga lytica; read-out: C. lytica MIC, Table 7): 6.25 to 12.5 µg/mL (≈ 21.6 to 43.2 µM); MIC (Cellulophaga lytica; read-out: C. lytica MIC, Table 12): 12.5 µg/mL (≈ 43.2 µM); Percent reduction in growth of Navicula incerta (Navicula incerta; [6]): 94.57%; Percent reduction in growth of Navicula incerta (Navicula incerta; [7]): 93.55%; Percent reduction in growth of Navicula incerta (Navicula incerta; [8]): 94.21%; Percent reduction in growth of Navicula incerta (Navicula incerta; [9]): 94.95%; MIC (Navicula incerta; read-out: N. incerta MIC): 3.12 µg/mL (≈ 10.8 µM)
